Measurements: PMC8267566, “Human GPR17 missense variants identified in metabolic disease patients have distinct downstream signaling profiles” (The Journal of Biological Chemistry, 2021)

How the values were obtained:
Format in all cases: cell-based
hGPR17L-V96M [1] = molecular target: T1, hGPR17L-V96M (Homo sapiens, UniProt Q13304, V96M); assay: GloSensor cAMP assay, inhibition of forskolin-stimulated cAMP
T1 construct: expressed in transfected cells; host or cells: HEK293 (ATCC CRL-1573), transient transfection
Method: (§1) HEK293 cells were seeded at 20,000 cells/well into white, opaque 96-well plates. The next day, cells were transiently cotransfected with pGloSensor-cAMP-22F and pcDNA3-HA-hGPR17L or pcDNA3-HA-hGPR17L-variants using lipofectamine 3000. Twenty-four hours posttransfection, growth medium and transfection mix were aspirated and replaced with 100 μl/well equilibration medium (2% Promega GloSensor cAMP reagent [E1291; Promega Corporation] in CO2-independent medium) and incubated at room temperature for 2 h. Baseline luminescence was read on a Molecular Devices SpectraMax iD5 plate reader (Molecular Devices) at ambient room temperature for 8 min. Subsequently, 10 μl/well MDL29,951 diluted in assay buffer (HBSS, 20 mM HEPES, pH 7.2) was added and luminescence was read for 10 min. Finally, 10 μl/well forskolin (1099; Tocris Bioscience) diluted in assay buffer was added and luminescence was measured for 20–30 min. The average luminescence value for the 14–20 min time points for each well was normalized to their average baseline luminescence value and expressed as a percentage of the forskolin-stimulated response within each transfection condition.

hGPR17L-R301H [2] = molecular target: T2, hGPR17L-R301H (Homo sapiens, UniProt Q13304, R301H); assay: as above
T2 construct: expressed in transfected cells; host or cells: HEK293 (ATCC CRL-1573)
Method: as §1

hGPR17L-D105N [3] = molecular target: T3, hGPR17L-D105N (Homo sapiens, UniProt Q13304, D105N); assay: as above
T3 construct: expressed in transfected cells; host or cells: HEK293 (ATCC CRL-1573), transient transfection
Method: as §1

hGPR17L-F43L [4] = molecular target: T4, hGPR17L-F43L (Homo sapiens, UniProt Q13304, F43L); assay: as above
T4 construct: expressed in transfected cells; host or cells: HEK293 (ATCC CRL-1573), transient transfection
Method: as §1

hGPR17L-V103M = molecular target: T5, hGPR17L-V103M (Homo sapiens, UniProt Q13304, V103M); assay: Calcium flux assay
T5 construct: expressed in transfected cells; host or cells: HEK293 (ATCC CRL-1573), transient transfection
Method: (§2) HEK293 cells were seeded at 20,000 cells/well into black, optical bottom, poly-D-lysine coated 96-well plates. The following day, cells were transiently transfected with pcDNA3-HA-hGPR17L or pcDNA3-HA-hGPR17L-variants using lipofectamine 3000. Twenty-four hours after transfection, the growth medium and transfection mix were decanted and 100 μl/well assay buffer (HBSS, 20 mM HEPES, pH 7.2) and 100 μl/well Calcium 6 loading dye (R8190; Molecular Devices) were added to the plate and incubated at 37 °C, 5% CO2 for 1 h 45 min. Plate was allowed to equilibrate to room temperature on the bench top for 30 min. MDL29,951 diluted in assay buffer was added to the wells and fluorescence (485 nm excitation, 525 nm emission, and 515 nm automatic emission cutoff) was measured using a Molecular Devices FlexStation3 (Molecular Devices). For experiments with pertussis toxin, cells were pretreated with 100 ng/ml pertussis toxin overnight and 100 ng/ml pertussis toxin was included with Calcium 6 loading dye for calcium flux assays.

hGPR17L-V96M [5] = molecular target: T1, hGPR17L-V96M; assay: Calcium flux assay
Method: as §2

hGPR17L-A131T = molecular target: T6, hGPR17L-A131T (Homo sapiens, UniProt Q13304, A131T); assay: Calcium flux assay
T6 construct: expressed in transfected cells; host or cells: HEK293 (ATCC CRL-1573), transient transfection
Method: as §2

hGPR17L-R301H [6] = molecular target: T2, hGPR17L-R301H; assay: Calcium flux assay
Method: as §2

hGPR17L-WT = molecular target: T7, hGPR17L-WT (Homo sapiens, UniProt Q13304); assay: Calcium flux assay
T7 construct: expressed in transfected cells; host or cells: HEK293 (ATCC CRL-1573), transient transfection of pcDNA3-HA-hGPR17L
Method: as §2

hGPR17L-D105N [7] = molecular target: T3, hGPR17L-D105N; assay: Calcium flux assay
Method: as §2

hGPR17L-G136S = molecular target: T8, hGPR17L-G136S (Homo sapiens, UniProt Q13304, G136S); assay: Calcium flux assay; details: HEK293, read-out: calcium response, % of the maximum response observed for hGPR17L-WT
T8 construct: expressed in transfected cells; host or cells: HEK293 (ATCC CRL-1573), transient transfection
Method: as §2

hGPR17L-F43L [8] = molecular target: T4, hGPR17L-F43L; assay: Calcium flux assay
Method: as §2

hGPR17L-R248Q = molecular target: T9, hGPR17L-R248Q (Homo sapiens, UniProt Q13304, R248Q); assay: Calcium flux assay
T9 construct: expressed in transfected cells; host or cells: HEK293 (ATCC CRL-1573), transient transfection
Method: as §2

hGPR17L-G354V = molecular target: T10, hGPR17L-G354V (Homo sapiens, UniProt Q13304, G354V); assay: Calcium flux assay
T10 construct: expressed in transfected cells; host or cells: HEK293 (ATCC CRL-1573)
Method: as §2

[9] = HEK293, inhibition of 3 μM forskolin-stimulated cAMP
[10] = read-out: cAMP IC50, HEK293, inhibition of 3 μM forskolin-stimulated cAMP
[11] = read-out: Ca2+ EC50, HEK293, calcium mobilization

T2 sequence (Q13304 whole entry R301H): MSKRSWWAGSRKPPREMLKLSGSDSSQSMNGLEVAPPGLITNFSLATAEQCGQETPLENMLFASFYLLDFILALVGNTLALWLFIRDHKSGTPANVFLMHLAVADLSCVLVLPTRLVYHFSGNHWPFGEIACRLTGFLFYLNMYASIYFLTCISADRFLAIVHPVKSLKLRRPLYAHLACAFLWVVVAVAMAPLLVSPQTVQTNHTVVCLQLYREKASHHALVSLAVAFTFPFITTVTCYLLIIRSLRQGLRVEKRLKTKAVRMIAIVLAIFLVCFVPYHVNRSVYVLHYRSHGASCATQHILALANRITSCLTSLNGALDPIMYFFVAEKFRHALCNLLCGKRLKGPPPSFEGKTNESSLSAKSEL
T9 sequence (Q13304 whole entry R248Q): as the sequence (Q13304 whole entry R301H) above, with R248Q, H301R counted along it
T10 sequence (Q13304 whole entry G354V): as the sequence (Q13304 whole entry R301H) above, with H301R, G354V counted along it
T7 sequence (Q13304 whole entry): as the sequence (Q13304 whole entry R301H) above, with H301R counted along it
T5 sequence (Q13304 whole entry V103M): as the sequence (Q13304 whole entry R301H) above, with V103M, H301R counted along it
T1 sequence (Q13304 whole entry V96M): as the sequence (Q13304 whole entry R301H) above, with V96M, H301R counted along it
T3 sequence (Q13304 whole entry D105N): as the sequence (Q13304 whole entry R301H) above, with D105N, H301R counted along it
T6 sequence (Q13304 whole entry A131T): as the sequence (Q13304 whole entry R301H) above, with A131T, H301R counted along it
T4 sequence (Q13304 whole entry F43L): as the sequence (Q13304 whole entry R301H) above, with F43L, H301R counted along it
T8 sequence (Q13304 whole entry G136S): as the sequence (Q13304 whole entry R301H) above, with G136S, H301R counted along it

O=C(O)CCc1c(C(=O)O)[nH]c2cc(Cl)cc(Cl)c12 [MDL29,951]
cAMP Efficacy (% inhibition) (hGPR17L-V96M [1]; HEK293, 3 μM forskolin): 36 ± 4.2 % inhibition | cAMP 10 μM MDL +3 μM FSK (% of FSK) (hGPR17L-V96M [1]; HEK293, 10 μM MDL29,951): 60 ± 5.6 % of FSK | cAMP 100 μM MDL +3 μM FSK (% of FSK) (hGPR17L-V96M [1]; HEK293, 100 μM MDL29,951): 65 ± 4.6 % of FSK | cAMP pIC50 ± SEM (hGPR17L-V96M [1]; [9]): 8.77 ± 0.36 | IC50 (hGPR17L-V96M [1]; [10]): 1.7 nM | cAMP Efficacy (% inhibition) (hGPR17L-R301H [2]; HEK293, 3 μM forskolin): 52 ± 5.2 % inhibition | cAMP 10 μM MDL +3 μM FSK (% of FSK) (hGPR17L-R301H [2]; HEK293, 10 μM MDL29,951): 72 ± 2.5 % of FSK | cAMP 100 μM MDL +3 μM FSK (% of FSK) (hGPR17L-R301H [2]; HEK293, 100 μM MDL29,951): 101 ± 2.9 % of FSK | cAMP pIC50 ± SEM (hGPR17L-R301H [2]; [9]): 8.00 ± 0.46 | IC50 (hGPR17L-R301H [2]; [10]): 10 nM | fold less potent for inhibition of forskolin-stimulated cAMP relative to hGPR17L-WT (hGPR17L-D105N [3]): sixfold less potent | cAMP Efficacy (% inhibition) (hGPR17L-D105N [3]; HEK293, 3 μM forskolin): 48 ± 4.7 % inhibition | cAMP 10 μM MDL +3 μM FSK (% of FSK) (hGPR17L-D105N [3]; HEK293, 10 μM MDL29,951): 49 ± 7.3 % of FSK | cAMP 100 μM MDL +3 μM FSK (% of FSK) (hGPR17L-D105N [3]; HEK293, 100 μM MDL29,951): 56 ± 10 % of FSK | cAMP pIC50 ± SEM (hGPR17L-D105N [3]; [9]): 7.75 ± 0.25 | IC50 (hGPR17L-D105N [3]; [10]): 18 nM | cAMP Efficacy (% inhibition) (hGPR17L-F43L [4]; HEK293, 3 μM forskolin): 44 ± 2.7 % inhibition | cAMP 10 μM MDL +3 μM FSK (% of FSK) (hGPR17L-F43L [4]; HEK293, 10 μM MDL29,951): 107 ± 24 % of FSK | cAMP 100 μM MDL +3 μM FSK (% of FSK) (hGPR17L-F43L [4]; HEK293, 100 μM MDL29,951): 145 ± 30 % of FSK | cAMP pIC50 ± SEM (hGPR17L-F43L [4]; [9]): 8.81 ± 0.37 | IC50 (hGPR17L-F43L [4]; [10]): 1.6 nM | Ca2+ Efficacy (% of WT Emax) (hGPR17L-V103M; HEK293): 119 ± 8.4 % of WT Emax | Ca2+ pEC50 ± SEM (hGPR17L-V103M; HEK293, calcium mobilization): 6.66 ± 0.09 | EC50 (hGPR17L-V103M; [11]): 220 nM | calcium mobilization in the presence of pertussis toxin (hGPR17L-V96M [5]): reduced calcium mobilization | fold less potent calcium response vs hGPR17L-WT (hGPR17L-V96M [5]; hGPR17L-V96M): 6–7 fold | reduction of efficacy of calcium response vs hGPR17L-WT (hGPR17L-V96M [5]; hGPR17L-V96M): approximately 70% | Ca2+ Efficacy (% of WT Emax) (hGPR17L-V96M [5]; hGPR17L-V96M, HEK293): 31 ± 4.7 % of WT Emax | Ca2+ pEC50 ± SEM (hGPR17L-V96M [5]; hGPR17L-V96M, HEK293, calcium mobilization): 6.27 ± 0.05 | EC50 (hGPR17L-V96M [5]; read-out: Ca2+ EC50, hGPR17L-V96M, HEK293, calcium mobilization): 540 nM | Ca2+ Efficacy (% of WT Emax) (hGPR17L-A131T; HEK293): 109 ± 8.9 % of WT Emax | Ca2+ pEC50 ± SEM (hGPR17L-A131T; HEK293, calcium mobilization): 6.63 ± 0.08 | EC50 (hGPR17L-A131T; [11]): 230 nM | Ca2+ Efficacy (% of WT Emax) (hGPR17L-R301H [6]; HEK293): 85 ± 3.6 % of WT Emax | Ca2+ pEC50 ± SEM (hGPR17L-R301H [6]; HEK293, calcium mobilization): 6.74 ± 0.14 | EC50 (hGPR17L-R301H [6]; [11]): 180 nM | calcium flux efficacy with pertussis toxin (% of control pretreatment) (hGPR17L-WT): 82 ± 1.4 % of control pretreatment | calcium flux potency with pertussis toxin, fold shift in EC50 (hGPR17L-WT): approximately 2.5 fold | Ca2+ Efficacy (% of WT Emax) (hGPR17L-WT; hGPR17L-WT, HEK293): 100 % of WT Emax | maximum stimulation of calcium mobilization (hGPR17L-WT; hGPR17L-WT, HEK293): 1.51 ± 0.14 Peak ΔF/F | Ca2+ pEC50 ± SEM (hGPR17L-WT; hGPR17L-WT, HEK293, calcium mobilization): 7.09 ± 0.11 | EC50 (hGPR17L-WT; read-out: Ca2+ EC50, hGPR17L-WT, HEK293, calcium mobilization): 82 nM | calcium mobilization in the presence of pertussis toxin (hGPR17L-D105N [7]): reduced calcium mobilization | fold less potent calcium response vs hGPR17L-WT (hGPR17L-D105N [7]; hGPR17L-D105N): 6–7 fold | reduction of efficacy of calcium response vs hGPR17L-WT (hGPR17L-D105N [7]; hGPR17L-D105N): approximately 70% | Ca2+ Efficacy (% of WT Emax) (hGPR17L-D105N [7]; hGPR17L-D105N, HEK293): 28 ± 4.5 % of WT Emax | Ca2+ pEC50 ± SEM (hGPR17L-D105N [7]; hGPR17L-D105N, HEK293, calcium mobilization): 6.21 ± 0.11 | EC50 (hGPR17L-D105N [7]; read-out: Ca2+ EC50, hGPR17L-D105N, HEK293, calcium mobilization): 620 nM | Emax (hGPR17L-G136S): 3.6 ± 1.3% | Ca2+ Efficacy (% of WT Emax) (hGPR17L-F43L [8]; HEK293): 97 ± 3.9 % of WT Emax | Ca2+ pEC50 ± SEM (hGPR17L-F43L [8]; HEK293, calcium mobilization): 7.25 ± 0.19 | EC50 (hGPR17L-F43L [8]; [11]): 57 nM | Ca2+ Efficacy (% of WT Emax) (hGPR17L-R248Q; HEK293): 103 ± 25 % of WT Emax | Ca2+ pEC50 ± SEM (hGPR17L-R248Q; HEK293, calcium mobilization): 6.92 ± 0.02 | EC50 (hGPR17L-R248Q; [11]): 120 nM | Ca2+ Efficacy (% of WT Emax) (hGPR17L-G354V; HEK293): 92 ± 2.6 % of WT Emax | Ca2+ pEC50 ± SEM (hGPR17L-G354V; HEK293, calcium mobilization): 7.05 ± 0.29 | EC50 (hGPR17L-G354V; [11]): 89 nM
